The target of assay [1] is T1, membrane-associated human IR-A (Homo sapiens, UniProt P06213).
T1 construct: expressed in transfected cells; host or cells: BHK cells stably transfected with pZem219B vector (plasma membrane preparation)
Briefly: Insulin receptor affinity on membrane-associated receptors, SPA competition binding. How it is done: (§1) Membrane-associated human IR and IGF-1R are purified from BHK cells stably transfected with the pZem219B vector containing either the human IR-A, IR-B or IGF-IR insert. BHK cells are harvested and homogenized in ice-cold buffer (25 mM HEPES pH 7.4, 25 mM CaCl2 and 1 mM MgCl2, 250 mg/L bacitracin, 0.1 mM Pefablock). […] The pellets are re-suspended in a minimal volume of buffer and drawn through a needle (size 23) three times before storage at −80° C. until usage.
(§2) The relative binding affinity for either of the membrane-associated human IR-A, IR-B or IGF-1R is determined by competition binding in a SPA setup. IR assays are performed in duplicate in 96-well OptiPlates (Perkin-Elmer Life Sciences). […] Assays are terminated by centrifugation of the plate at 2000 rpm for 2 minutes and bound radioactivity quantified by counting on a TopCount NXT (Perkin-Elmer Life Sciences).
(§3) IGF-1R assays are conducted essentially as for the IR binding assays except that membrane-associated IGF-1R and 50 pM [^125 I-Tyr31]-human IGF-1 were employed.

The target in assay [2] is T2, membrane-associated human IGF-1R (Homo sapiens, UniProt P08069).
T2 construct: expressed in transfected cells; host or cells: BHK cells stably transfected with pZem219B vector (plasma membrane preparation)
T2 sequence (P08069 31-736 limits assumed): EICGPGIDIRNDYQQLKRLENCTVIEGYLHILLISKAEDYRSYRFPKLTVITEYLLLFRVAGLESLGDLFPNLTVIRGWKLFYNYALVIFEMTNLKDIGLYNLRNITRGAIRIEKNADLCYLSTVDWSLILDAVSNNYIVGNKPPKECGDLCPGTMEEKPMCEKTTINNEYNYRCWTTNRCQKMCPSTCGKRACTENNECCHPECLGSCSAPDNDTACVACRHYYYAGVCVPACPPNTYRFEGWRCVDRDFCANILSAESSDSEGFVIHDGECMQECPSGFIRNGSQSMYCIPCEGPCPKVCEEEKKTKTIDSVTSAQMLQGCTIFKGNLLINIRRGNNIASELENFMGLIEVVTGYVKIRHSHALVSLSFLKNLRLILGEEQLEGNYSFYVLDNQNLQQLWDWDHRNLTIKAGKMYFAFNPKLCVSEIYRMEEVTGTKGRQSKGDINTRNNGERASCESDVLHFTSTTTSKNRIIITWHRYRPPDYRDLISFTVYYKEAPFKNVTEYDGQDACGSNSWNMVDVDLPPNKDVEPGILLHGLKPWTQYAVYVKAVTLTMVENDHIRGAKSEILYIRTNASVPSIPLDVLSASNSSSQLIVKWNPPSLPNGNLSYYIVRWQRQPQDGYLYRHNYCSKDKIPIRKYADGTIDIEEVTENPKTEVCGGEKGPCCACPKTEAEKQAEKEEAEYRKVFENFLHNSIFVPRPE
T2 sequence (P08069 741-1367 partner limits assumed): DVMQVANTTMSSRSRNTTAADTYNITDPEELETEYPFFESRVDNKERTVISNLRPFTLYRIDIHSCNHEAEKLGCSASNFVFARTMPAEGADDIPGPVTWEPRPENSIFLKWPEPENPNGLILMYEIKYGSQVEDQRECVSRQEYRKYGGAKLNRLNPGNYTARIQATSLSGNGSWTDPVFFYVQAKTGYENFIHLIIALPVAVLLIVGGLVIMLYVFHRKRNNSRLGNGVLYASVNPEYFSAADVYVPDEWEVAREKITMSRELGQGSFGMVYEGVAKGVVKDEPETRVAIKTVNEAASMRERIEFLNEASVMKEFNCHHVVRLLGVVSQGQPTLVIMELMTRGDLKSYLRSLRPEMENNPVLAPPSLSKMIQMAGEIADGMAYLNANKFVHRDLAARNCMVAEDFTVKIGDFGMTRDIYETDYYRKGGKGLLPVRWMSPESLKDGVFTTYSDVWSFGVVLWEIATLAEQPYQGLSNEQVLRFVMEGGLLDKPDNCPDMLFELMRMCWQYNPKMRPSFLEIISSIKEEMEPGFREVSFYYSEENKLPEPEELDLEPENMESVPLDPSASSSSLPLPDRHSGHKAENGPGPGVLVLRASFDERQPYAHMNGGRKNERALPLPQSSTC
Nature of the assay: IGF-1 receptor affinity on membrane-associated receptors, SPA competition binding. The settings on record: membrane-associated cloned human IGF-1R, % relative to human insulin. How it is done:
as §1, §2, §3

Assay [3] concerns the target T3, solubilised human IR-A (Homo sapiens, UniProt P06213).
T3 construct: made in house; host or cells: baby hamster kidney (BHK) cells overexpressing the IR-A holoreceptor
Nature of the assay: Insulin receptor affinity on solubilised receptors, SPA competition binding, 0% HSA. The settings on record: solubilised cloned human insulin receptor A isoform, % relative to human insulin.

For assay [4], the target named is T3, solubilised human IR-A. Briefly: Insulin receptor affinity on solubilised receptors, SPA competition binding, binding buffer with […] HSA. The conditions noted are these: solubilised cloned human insulin receptor A isoform, % relative to human insulin.

T1 sequence (P06213 28-746 isoform P06213-2 limits assumed): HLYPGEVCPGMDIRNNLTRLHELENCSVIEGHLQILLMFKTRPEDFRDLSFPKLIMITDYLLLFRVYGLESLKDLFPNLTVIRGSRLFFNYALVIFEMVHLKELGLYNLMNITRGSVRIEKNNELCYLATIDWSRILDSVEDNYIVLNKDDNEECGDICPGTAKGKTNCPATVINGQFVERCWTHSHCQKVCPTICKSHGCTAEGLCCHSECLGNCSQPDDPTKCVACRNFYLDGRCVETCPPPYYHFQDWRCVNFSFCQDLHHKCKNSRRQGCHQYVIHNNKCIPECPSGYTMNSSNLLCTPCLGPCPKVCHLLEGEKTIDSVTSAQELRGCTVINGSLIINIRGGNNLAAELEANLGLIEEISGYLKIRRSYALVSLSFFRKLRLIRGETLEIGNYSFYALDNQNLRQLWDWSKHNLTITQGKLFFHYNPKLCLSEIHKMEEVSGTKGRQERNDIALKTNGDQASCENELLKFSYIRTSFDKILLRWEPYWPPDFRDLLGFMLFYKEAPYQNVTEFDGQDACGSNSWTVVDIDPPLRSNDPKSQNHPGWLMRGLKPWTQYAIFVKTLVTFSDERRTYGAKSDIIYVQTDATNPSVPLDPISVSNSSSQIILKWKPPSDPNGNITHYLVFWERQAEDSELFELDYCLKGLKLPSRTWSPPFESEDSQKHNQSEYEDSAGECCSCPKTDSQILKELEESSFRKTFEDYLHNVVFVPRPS
T1 sequence (P06213 763-1382 partner limits assumed): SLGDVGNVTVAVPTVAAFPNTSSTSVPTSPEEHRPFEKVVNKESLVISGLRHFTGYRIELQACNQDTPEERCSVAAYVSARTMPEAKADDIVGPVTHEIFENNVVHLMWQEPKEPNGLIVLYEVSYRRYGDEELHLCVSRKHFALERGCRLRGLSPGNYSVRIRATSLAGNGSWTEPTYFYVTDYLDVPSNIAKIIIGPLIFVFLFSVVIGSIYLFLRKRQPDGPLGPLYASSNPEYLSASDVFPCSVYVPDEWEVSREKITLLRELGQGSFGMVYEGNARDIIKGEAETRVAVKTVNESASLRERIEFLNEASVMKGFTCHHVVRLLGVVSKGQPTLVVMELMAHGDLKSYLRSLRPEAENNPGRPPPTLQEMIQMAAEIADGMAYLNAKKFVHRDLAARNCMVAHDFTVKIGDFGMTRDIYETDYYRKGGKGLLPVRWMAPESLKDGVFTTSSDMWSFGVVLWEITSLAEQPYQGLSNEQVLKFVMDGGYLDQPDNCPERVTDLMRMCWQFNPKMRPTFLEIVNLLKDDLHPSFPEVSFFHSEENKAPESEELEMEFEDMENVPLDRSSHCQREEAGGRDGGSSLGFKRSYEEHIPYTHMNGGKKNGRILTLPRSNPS
T3 sequence (P06213 28-746 isoform P06213-2 limits assumed): as the sequence (P06213 28-746 isoform P06213-2 limits assumed) above
T3 sequence (P06213 763-1382 partner limits assumed): as the sequence (P06213 763-1382 partner limits assumed) above

Take “A22K(N(Eps)-Tetradecanedioyl-2×OEG), desB27, B29R, desB30 Human Insulin [Example 17]”: the “Relative IR-A affinity (@ 0.1% HSA)” value in assay [1] (membrane-associated cloned human IR-A, 0.1% HSA, % relative to human insulin) was determined as 117.3%. Further, in assay [1] (ratio of IR-A to IGF-1R affinities from membrane-associated receptors), the “IR IGF1 ratio” value amounted to 0.21. Further, the “Relative IGF-1R affinity (@ 0.1% HSA)” value in assay [2] is 546.4%. The “Relative IR-A affinity (@ 0% HSA)” value in assay [3] is 241.7%. For the same substance, the “Relative IR-A affinity (@ […] HSA)” value in assay [4] is listed as 117.9%.

The record behind these values is patent US10040839B2, “Insulin derivatives and the medical uses hereof” (Novo Nordisk A/S, priority 2014, dated 2018).
